The subject of data set [1] is Plutella xylostella (diamond back moth). Briefly: Example B8: comparison with state of the art, Plutella xylostella (larvicide, feeding/residual contact activity, preventive). It is filed as in vivo. Here is the method: Plutella xylostella (Diamond Back Moth)
(Larvicide, Feeding/Residual Contact Activity, Preventive)
24-well microtiter plate (MTP) with artificial diet is treated with test solutions by pipetting. After drying, the MTP's are infested with larvae (L2) (10-15 per well). After an incubation period of 5 days, samples are checked for larval mortality, antifeedant and growth regulation.

Data set [2] concerns Spodoptera littoralis (Egyptian cotton leafworm). The experiment in a line: Example B9: comparison with state of the art, Spodoptera littoralis (larvicide, feeding/residual contact activity, preventive). It is filed as in vivo.
Data set [3] deals with Heliothis virescens (tobacco budworm). Briefly: Example B2: Activity against Heliothis virescens (ovo-larvicide, feeding/contact activity, curative), eggs on artificial diet. The data set is classed as in vivo. The note with it: 96 h, 4 days incubation. Here is the method: Activity Against Heliothis virescens (Tobacco Budworm) (Ovo-Larvicide, Feeding/Contact Activity, Curative) Eggs (0-24 h old) are placed in 24-well microtiter plate on artificial diet and treated with test solutions by pipetting. After an incubation period of 4 days, samples are checked for egg mortality, larval mortality, and growth regulation.

In data set [4] the test system is Diabrotica balteata (corn root worm). The experiment in a line: Example B4: Diabrotica balteata (larvicide, feeding/residual contact activity, preventive), artificial diet MTP. It is filed as in vivo. The conditions noted are these: 120 h, L2 larvae on artificial diet, 5 days incubation. Here is the method:
Diabrotica balteata (Corn Root Worm) (Larvicide, Feeding/Residual Contact Activity, Preventive) 24-well microtiter plate (MTP) with artificial diet is treated with test solutions by pipetting. After drying, the MTP's are infested with larvae (L2) (6-10 per well). After an incubation period of 5 days, samples are checked for larval mortality, antifeedant and growth regulation.

The subject of data set [5] is Plutella xylostella (diamond back moth). Briefly: Example B3: Plutella xylostella (larvicide, feeding/residual contact activity, preventive), artificial diet MTP. The data set is classed as in vivo. The conditions noted are these: 120 h, L2 larvae on artificial diet, 5 days incubation. As for the experimental part: Plutella xylostella (Diamond Back Moth) (Larvicide, Feeding/Residual Contact Activity, Preventive) 24-well microtiter plate (MTP) with artificial diet is treated with test solutions by pipetting. After drying, the MTP's are infested with larvae (L2) (10-15 per well). After an incubation period of 5 days, samples are checked for larval mortality, antifeedant and growth regulation.

In data set [6] the test system is Spodoptera littoralis (Egyptian cotton leafworm). The experiment in a line: Example B1: Activity against Spodoptera littoralis (larvicide, feeding/residual contact activity, preventive), cotton leaf discs. It is filed as in vivo. The note with it: foliar, 72 h, L1 larvae on cotton leaf discs, 3 days after treatment.
Data set [7] concerns Myzus persicae (green peach aphid). The experiment in a line: Example B6: Activity against Myzus persicae (mixed population, systemic/feeding activity, curative), pea seedling roots in test solution. The note with it: 144 h, read-out: activity.
For data set [8] the test system is unchanged. The conditions noted are these: foliar, 144 h, read-out: activity.

Where two headings read alike, the source gives them in different places.

What is called melting point is the temperature of the solid-liquid transition. `Cc1cc2c(c(C(=O)NC(C)C)c1NC(=O)c1cc(OC(F)F)nn1-c1ncccc1Cl)OC(F)(F)O2` came in with a melting point of 203 to 204 °C.

Take `CC(C)(CS(C)(=O)=O)NC(=O)c1c(NC(=O)c2cc(C(F)(F)F)nn2-c2ncccc2Cl)c(Cl)cc2c1OCO2`: the melting point lay in the range of 88 to 90 °C.

Turning to `CNC(=O)c1c(NC(=O)c2cc(C(F)F)nn2-c2ncccc2Cl)ccc2c1OC(C)C2` (stereo not drawn) [P.85], the melting point fell in the range of 211 to 213 °C.

`COc1cc(C(=O)Nc2ccc3c(c2C(=O)NC(C)C)OCO3)n(-c2ncccc2Cl)n1` [P.64] displayed a melting point of 216 to 217 °C.

Compound `Cc1cc2c(c(C(=O)NC(C)C)c1NC(=O)c1cc(C(F)F)nn1-c1ncccc1Cl)OC(C)C2` (stereo not drawn) had a melting point of 140 to 142 °C.

On to `CCNC(=O)c1c(NC(=O)c2cc(Br)nn2-c2ncccc2Cl)ccc2c1OCO2` [P.65], for which the melting point is 178 to 179 °C.

Compound `CNC(=O)c1c(NC(=O)c2cc(C(F)F)nn2-c2ncccc2Cl)c(C)cc2c1OC(C)C2` (stereo not drawn) displayed a melting point of 205 to 206 °C.

With `CC(C)NC(=O)c1cc2c(c(Cl)c1NC(=O)c1cc(C(F)(F)F)nn1-c1ncccc1Cl)OC(F)(F)O2` [T91.3, reference compound], the “Death rate (%) after 5 days” value in data set [1] (Concentration 12.5 ppm) was 0%; in data set [1] (Concentration 50 ppm), 80%; in data set [1] (Concentration 200 ppm), 100%; in [2] (Concentration 12.5 ppm) it was 0%; in data set [2] (Concentration 50 ppm) it was 0%; in data set [2] (Concentration 200 ppm), 100 (growth) %.

With `CSCC(C)(C)NC(=O)c1c(NC(=O)c2cc(C(F)(F)F)nn2-c2ncccc2Cl)c(C)cc2c1OC(F)(F)O2`, the melting point lay in the range of 173 to 174 °C.

In turn, `CNC(=O)c1c(NC(=O)c2cc(OC(F)F)nn2-c2ncccc2Cl)c(C)cc2c1OC(F)(F)O2` had a melting point of 236 to 237 °C.

`C[S+]([O-])CC(C)(C)NC(=O)c1c(NC(=O)c2cc(Cl)nn2-c2ncccc2Cl)c(Cl)cc2c1OC(F)(F)O2` (stereo not drawn) registered a melting point of 240 to 242 °C.

For the compound `CC(C)NC(=O)c1c(NC(=O)c2cc(C(F)(F)F)nn2-c2ncccc2Cl)c(Cl)cc2c1OC(F)(F)O2` [P.13], the “Death rate (%) after 5 days” value in [1] (Concentration 12.5 ppm), in [1] (Concentration 50 ppm), in [1] (Concentration 200 ppm), in data set [2] (Concentration 12.5 ppm), in data set [2] (Concentration 50 ppm) and in [2] (Concentration 200 ppm) was 100% each time. Further, the “insecticidal action compared with the compound from the state of the art (T91.3)” value in [1] (on Plutella xylostella, especially at low application rates) is “substantially better insecticidal action”; in data set [2] (on Spodoptera littoralis, especially at low application rates), “substantially better insecticidal action”. Further, the pest or weed control at 400 ppm in [3], in data set [4], in data set [5] and in data set [6] was above 80% throughout.

With `CC(C)NC(=O)c1c(NC(=O)c2cc(C(F)F)nn2-c2ncccc2Cl)ccc2c1OC(C)C2` (stereo not drawn) [P.86], the melting point is 169 to 170 °C.

`CC(C)NC(=O)c1c(NC(=O)c2cc(Br)nn2-c2ncccc2Cl)c(Cl)cc2c1OC(F)(F)O2` [P.19]: the pest or weed control at 400 ppm in data set [3], in data set [4], in data set [5], in data set [7], in data set [8] and in data set [6] was above 80% throughout.

On to `CSCC(C)(C)NC(=O)c1c(NC(=O)c2cc(Cl)nn2-c2ncccc2Cl)c(C)cc2c1OC(F)(F)O2` [P.31], for which the pest or weed control at 400 ppm in data set [3], in data set [4], in [5], in data set [7], in data set [8] and in data set [6] was above 80% in each case.

Turning to `Cc1cc2c(c(C(=O)NC(C)C)c1NC(=O)c1cc(Cl)nn1-c1ncccc1Cl)OC(F)(F)O2` [P.30], the pest or weed control at 400 ppm in [3], in data set [4], in [5], in data set [7], in data set [8] and in data set [6] was above 80% in each case.

As to `CC(C)NC(=O)c1c(NC(=O)c2cc(Cl)nn2-c2ncccc2Cl)c(Cl)cc2c1OC(F)(F)O2` [P.23], the pest or weed control at 400 ppm in data set [3], in [4], in data set [5], in data set [7], in [8] and in [6] was above 80% each time.

Consider `CC(C)(CS(C)(=N)=O)NC(=O)c1c(NC(=O)c2cc(Cl)nn2-c2ncccc2Cl)c(Cl)cc2c1OC(F)(F)O2` (stereo not drawn), for which the melting point lay in the range of 188 to 190 °C.

On to `CNC(=O)c1c(NC(=O)c2cc(Br)nn2-c2ncccc2Cl)c(Cl)cc2c1OC(F)(F)O2` [P.18], for which the pest or weed control at 400 ppm in data set [3], in data set [4], in data set [5], in [7], in data set [8] and in data set [6] was above 80% throughout.

On to `CSCC(C)(C)NC(=O)c1c(NC(=O)c2cc(Br)nn2-c2ncccc2Cl)c(Cl)cc2c1OC(F)(F)O2` [P.20], for which the pest or weed control at 400 ppm in [3], in [4], in data set [5], in data set [7], in [8] and in data set [6] was above 80% in each case.

For the origin of these results see patent US8399490B2, “Insecticides” (Syngenta Crop Protection LLC, priority 2007, dated 2013).
